Experimental data taken from US20070049564A1 (Wyeth, priority 2005, published 2007).
Converted amounts (≈) assume the structure as drawn. Read-outs that look alike come from different tables or passages of the source.

Tests used:
E. faecalis GC 2267 = test: MIC, broth microdilution; settings: Enterococcus faecalis, GC2267, E. faecalis GC 2267
E. coli GC 4560 = test: MIC, broth microdilution; settings: Escherichia coli, GC4560, E. coli GC 4560
E. coli GC 2272 = test: MIC, broth microdilution; settings: Escherichia coli, GC2272, E. coli GC 2272
S. epidermidis GC 4935 = test: MIC, broth microdilution; settings: Staphylococcus epidermidis, GC4935, S. epidermidis GC 4935
S. agalactiae GC 4564 = test: MIC, broth microdilution; settings: Streptococcus agalactiae, GC4564, S. agalactiae GC 4564
E. faecalis GC 2242 = test: MIC, broth microdilution; settings: Enterococcus faecalis, GC2242, E. faecalis GC 2242
S. aureus GC 1079 = test: MIC, broth microdilution; settings: Staphylococcus aureus, GC1079, S. aureus GC 1079
E. coli GC 4559 = test: MIC, broth microdilution; settings: Escherichia coli, GC4559, E. coli GC 4559
S. aureus GC 4536 = test: MIC, broth microdilution; settings: Staphylococcus aureus, GC4536, S. aureus GC 4536
S. pneumoniae+ GC 4465 = test: MIC, broth microdilution; settings: Streptococcus pneumoniae, S. pneumoniae+ GC 4465
S. aureus GC 6467 = test: MIC, broth microdilution; settings: Staphylococcus aureus, GC6467, S. aureus GC 6467
Staph. aureus Smith = test: In vivo activity (oral, iv; ED50) against Staph. aureus Smith in mice
Description: Representative examples of compounds of Formula I were tested for the oral efficacy using S. aureus Smith in mice.

E. coli GC 6465 = test: MIC, broth microdilution; settings: Escherichia coli, GC6465, E. coli GC 6465
E. coli GC 2235 = test: MIC, broth microdilution; settings: Escherichia coli, GC2235, E. coli GC 2235
E. faecalis GC 4555 = test: MIC, broth microdilution; settings: Enterococcus faecalis, GC4555, E. faecalis GC 4555
S. aureus GC 1131 = test: MIC, broth microdilution; settings: Staphylococcus aureus, GC1131, S. aureus GC 1131
E. coli GC 1073 = test: MIC, broth microdilution; settings: Escherichia coli, GC1073, E. coli GC 1073
S. typhimurium GC 2172 = test: MIC, broth microdilution; settings: Salmonella enterica, TYPHIMURIUM, S. typhimurium GC 2172
c. albicans GC 3066 = test: MIC, broth microdilution
S. pneumoniae* GC 4465 = test: MIC, broth microdilution; settings: Streptococcus pneumoniae, S. pneumoniae* GC 4465
[1] = Staphylococcus aureus, in Mus musculus, po, read-out: ED50 Staph Smith SOD
[2] = iv, read-out: ED50 Staph Smith SIV
[3] = c. albicans GC 3066, Water pre-incubation

SMILES | MIC (E. faecalis GC 2267; Mouse Serum pre-incubation) [µg/mL] | MIC (E. faecalis GC 2267; Water pre-incubation) [µg/mL] | MIC (E. coli GC 4560; Mouse Serum pre-incubation) [µg/mL] | MIC (E. coli GC 4560; Water pre-incubation) [µg/mL] | MIC (E. coli GC 2272; Mouse Serum pre-incubation) [µg/mL] | MIC (E. coli GC 2272; Water pre-incubation) [µg/mL] | MIC (S. epidermidis GC 4935; Mouse Serum pre-incubation) [µg/mL] | MIC (S. epidermidis GC 4935; Water pre-incubation) [µg/mL] | MIC (S. agalactiae GC 4564; Mouse Serum pre-incubation) [µg/mL] | MIC (S. agalactiae GC 4564; Water pre-incubation) [µg/mL] | MIC (E. faecalis GC 2242; Mouse Serum pre-incubation) [µg/mL] | MIC (E. faecalis GC 2242; Water pre-incubation) [µg/mL] | MIC (S. aureus GC 1079; Mouse Serum pre-incubation) [µg/mL] | MIC (S. aureus GC 1079; Water pre-incubation) [µg/mL] | MIC (E. coli GC 4559; Mouse Serum pre-incubation) [µg/mL] | MIC (E. coli GC 4559; Water pre-incubation) [µg/mL] | MIC (S. aureus GC 4536; Mouse Serum pre-incubation) [µg/mL] | MIC (S. aureus GC 4536; Water pre-incubation) [µg/mL] | MIC (S. pneumoniae+ GC 4465; Mouse Serum pre-incubation) [µg/mL] | MIC (S. pneumoniae+ GC 4465; Water pre-incubation) [µg/mL] | other results
CCCCN(CC(=O)Nc1cc(N(C)C)c2c(c1O)C(=O)C1=C(O)[C@]3(O)C(=O)C(C(N)=O)=C(O)[C@@H](N(C)C)C3CC1C2)C(=O)OCOC(=O)c1ccc(C)cc1 (stereo partly drawn) [Example 3, ({[(2-{[(7S,10aS)-9-(aminocarbonyl)-4,7-bis(dimethylamino)-1,8,10a,11-tetrahydroxy-10,12-dioxo-5,5a,6,6a,7,10,10a,12-octahydrotetracen-2-yl]amino}-2-oxoethyl)(butyl)amino]carbonyl}oxy)methyl 4-methylbenzoate] | 2 (≈ 2.57 µM) | 32 (≈ 41.1 µM) | 0.5 (≈ 0.643 µM) | 32 (≈ 41.1 µM) | 1 (≈ 1.29 µM) | > 64 | 4 (≈ 5.14 µM) | 8 (≈ 10.3 µM) | 1 (≈ 1.29 µM) | 2 (≈ 2.57 µM) | 2 (≈ 2.57 µM) | 16 (≈ 20.6 µM) | 2 (≈ 2.57 µM) | 32 (≈ 41.1 µM) | 2 (≈ 2.57 µM) | > 64 | 2 (≈ 2.57 µM) | 4 (≈ 5.14 µM) | 1 (≈ 1.29 µM) | 2 (≈ 2.57 µM) | MIC (S. aureus GC 6467; Mouse Serum pre-incubation): 4 µg/mL (≈ 5.14 µM); MIC (S. aureus GC 6467; Water pre-incubation): 32 µg/mL (≈ 41.1 µM); ED50 (Staph. aureus Smith; [1]): 16.1 mg/kg; ED50 (Staph. aureus Smith; [2]): 0.59 mg/kg; MIC (E. coli GC 6465; Mouse Serum pre-incubation): 8 µg/mL (≈ 10.3 µM); MIC (E. coli GC 6465; Water pre-incubation): > 64 µg/mL; MIC (E. coli GC 2235; Mouse Serum pre-incubation): 1 µg/mL (≈ 1.29 µM); MIC (E. coli GC 2235; Water pre-incubation): > 64 µg/mL; MIC (E. faecalis GC 4555; Mouse Serum pre-incubation): 1 µg/mL (≈ 1.29 µM); MIC (E. faecalis GC 4555; Water pre-incubation): 8 µg/mL (≈ 10.3 µM); MIC (S. aureus GC 1131; Mouse Serum pre-incubation): 2 µg/mL (≈ 2.57 µM); MIC (S. aureus GC 1131; Water pre-incubation): 4 µg/mL (≈ 5.14 µM); MIC (E. coli GC 1073; Mouse Serum pre-incubation): 2 µg/mL (≈ 2.57 µM); MIC (E. coli GC 1073; Water pre-incubation): > 64 µg/mL; MIC (S. typhimurium GC 2172; Mouse Serum pre-incubation): 8 µg/mL (≈ 10.3 µM); MIC (S. typhimurium GC 2172; Water pre-incubation): > 64 µg/mL; MIC (c. albicans GC 3066; Candida albicans, GC3066): > 64 µg/mL; MIC (c. albicans GC 3066; [3]): >64 UG/ML; MIC (S. pneumoniae* GC 4465; Mouse Serum pre-incubation): 0.12 µg/mL (≈ 0.154 µM); MIC (S. pneumoniae* GC 4465; Water pre-incubation): 0.25 µg/mL (≈ 0.321 µM)
CCCCN(CC(=O)Nc1cc(N(C)C)c2c(c1O)C(=O)C1=C(O)[C@]3(O)C(=O)C(C(N)=O)=C(O)[C@@H](N(C)C)[C@@H]3C[C@@H]1C2)C(=O)OCOC(=O)c1ccc(F)cc1 [Example 4, ({[(2-{[(5aR,6aS,7S,10aS)-9-(aminocarbonyl)-4,7-bis(dimethylamino)-1,8,10a,11-tetrahydroxy-10,12-dioxo-5,5a,6,6a,7,10,10a,12-octahydrotetracen-2-yl]amino}-2-oxoethyl)(butyl)amino]carbonyl}oxy)methyl 4-fluorobenzoate] | 1 (≈ 1.28 µM) | 8 (≈ 10.2 µM) | 0.25 (≈ 0.32 µM) | 8 (≈ 10.2 µM) | 1 (≈ 1.28 µM) | 64 (≈ 81.9 µM) | 2 (≈ 2.56 µM) | 4 (≈ 5.12 µM) | 0.25 (≈ 0.32 µM) | 0.5 (≈ 0.64 µM) | 1 (≈ 1.28 µM) | 4 (≈ 5.12 µM) | 1 (≈ 1.28 µM) | 4 (≈ 5.12 µM) | 2 (≈ 2.56 µM) | > 64 | 1 (≈ 1.28 µM) | 4 (≈ 5.12 µM) | 2 (≈ 2.56 µM) | 4 (≈ 5.12 µM) | MIC (S. aureus GC 6467; Mouse Serum pre-incubation): 2 µg/mL (≈ 2.56 µM); MIC (S. aureus GC 6467; Water pre-incubation): 8 µg/mL (≈ 10.2 µM); ED50 (Staph. aureus Smith; [1]): 11.6 mg/kg; ED50 (Staph. aureus Smith; [2]): 0.39 mg/kg; MIC (E. coli GC 6465; Mouse Serum pre-incubation): 4 µg/mL (≈ 5.12 µM); MIC (E. coli GC 6465; Water pre-incubation): > 64 µg/mL; MIC (E. coli GC 2235; Mouse Serum pre-incubation): 1 µg/mL (≈ 1.28 µM); MIC (E. coli GC 2235; Water pre-incubation): 64 µg/mL (≈ 81.9 µM); MIC (E. faecalis GC 4555; Mouse Serum pre-incubation): 1 µg/mL (≈ 1.28 µM); MIC (E. faecalis GC 4555; Water pre-incubation): 8 µg/mL (≈ 10.2 µM); MIC (S. aureus GC 1131; Mouse Serum pre-incubation): 1 µg/mL (≈ 1.28 µM); MIC (S. aureus GC 1131; Water pre-incubation): 4 µg/mL (≈ 5.12 µM); MIC (E. coli GC 1073; Mouse Serum pre-incubation): 1 µg/mL (≈ 1.28 µM); MIC (E. coli GC 1073; Water pre-incubation): > 64 µg/mL; MIC (S. typhimurium GC 2172; Mouse Serum pre-incubation): 4 µg/mL (≈ 5.12 µM); MIC (S. typhimurium GC 2172; Water pre-incubation): > 64 µg/mL; MIC (c. albicans GC 3066; Candida albicans, GC3066): > 64 µg/mL; MIC (c. albicans GC 3066; [3]): >64 UG/ML; MIC (S. pneumoniae* GC 4465; Mouse Serum pre-incubation): < 0.06 µg/mL; MIC (S. pneumoniae* GC 4465; Water pre-incubation): 0.12 µg/mL (≈ 0.153 µM)
